Values quoted from earlier work as cited in patent publication US10278869B2, “Apparatus for aspirating, irrigating and cleansing wounds” (SMITH & NEPHEW PLC, priority 2002, dated 2019).

Conditions: EP standard, CRS

gentamycin sulphate
activity: 616 IU mg^−1
